The results in this text go back to publication PMC7551591, “The Effect of Resveratrol or Curcumin on Head and Neck Cancer Cells Sensitivity to the Cytotoxic Effects of Cisplatin” (Nutrients, 2020).

Common to all, as to format: cell-based, human
Series [1] in a line: Annexin V-FITC/PI apoptosis flow cytometry, normal cells. Particulars: human, HUVEC normal cells, read-out: Q3 (viable cells, FITC−PI−). The procedure: (§1) The apoptosis assay was carried out with the Annexin V-FITC kit using the manufacturer’s (BD Pharmingen) protocol. Treated and untreated 1 × 10^6 cells/mL were resuspended in cold binding buffer and staining simultaneously with 5 μL FITC-Annexin V (green fluorescence) and 5 μL propidium iodide (PI) in the dark, at room temperature for 15 min. Then, 400μL of Annexin V binding buffer was added and 10,000 cells/sample were acquired using a BD Canto II flow cytometer. The analysis was performed using DIVA 6.2 software in order to discriminate viable cells (FITC^−PI^−) from necrotic cells […] and early apoptosis (FITC^+PI^−) from late apoptosis.
(§2) Apoptosis can be seen as an efficient method of preventing malignant transformation, as it ensures the removal of cells which present with genetic alterations. Deficient apoptosis can promote the development of cancer, both through the accumulation of cells found during division and the blocking of the removal of cells with high malignant potential genetic variations. The factors which determine the cells to follow one of three possible pathways are not yet known – the start of apoptosis after cellular injury, the repair of the lesion or the continuation of the cellular cycle. Many therapeutical agents have anti-tumoral effects generated by their capacity to activate the apoptotic process. […] The flow cytometric analysis was performed using DIVA 6.2 software and allowed to discriminate viable cells (FITC^−PI^− = Q3) from necrotic cells (FITC^−PI^+ = Q1) and early apoptosis (FITC^+PI^− = Q4) from late apoptosis (FITC^+PI^+ = Q2).
(In general: In flow cytometry, cells or beads pass a laser one at a time.)

For a further series, the system named is HUVEC normal cells. The description is as above. The conditions noted are these: 24 h; for Apoptoza Tarzie = Q2 (%): late apoptosis; for Apoptoza Totală = Q2+Q4 (%): total apoptosis. The procedure: as §1, §2
Series [2] concerns P21 (CDKN1A) gene expression in PE/CA-PJ49. Briefly: Real-time PCR of CDKN1A (P21) gene, tumor cells. Particulars: 24 h, reference gene HPRT, 2^-ΔΔCt vs control. An excerpt:
In order to isolate of total RNA from treated or untreated cells was used TRIzol reagent (Invitrogen)-a monophasic solution of phenol and guanidine isothiocyanate. During the isolation phases, the TRIzol reagent maintains RNA integrity, while disrupting cells and dissolving cell components. The addition of chloroform followed by centrifugation ensures the separation phase of the solution into an aqueous phase and an organic phase. RNA remains in the aqueous phase and is recovered by isopropanol precipitation. The RNA pellet washed once with 75% ice-cold ethanol and entrifuged at 10,000× g for 5 min at 4 °C. The […] is redissolved in nuclease-free water and incubating in a 60 °C water bath for 10 min. The concentration of isolated RNA was assessed using a NanoDrop spectrophotometer ([…], Montchanin, DE, USA). RNA purity was determined by A260/A280 ratios (an […] ratio as close as possible to 2 indicates the presence of highly purified RNA). Reverse transcription of messenger RNA molecules was performed using the High-capacity cDNA Reverse Transcription Kit from Applied Biosystems, using non-specific, randomic primers, following the manufacturer's instructions (Table 1). […] The obtained cDNA was stored at 4 °C and further used in the amplification reaction Real-Time PCR (RT-PCR). […] The samples were analyzed using the formula 2^-ΔΔCt.

Series [3] concerns PE/CA-PJ49 tumor cells. The series is described as follows: MTS cell proliferation assay (CellTiter 96), tumor cells. Particulars: 24 h, PE/CA-PJ49 vs HUVEC. From the text: In order to determine the effect of CRM or RSV on proliferative activity of cisplatin treated cells was used the Promega CellTiter 96® AQueous One Solution Cell Proliferation Assay, a test that is based on the reduction of yellow MTS tetrazolium salt by the viable cells and generation of colored formazan soluble in the culture medium. The product was spectrophotometrically quantified by measuring the absorbance at λ = 490 nm using a Dynex plate reader (DYNEX Technologies-MRS, Chantilly, VA, USA). Results were expressed as mean values of three determinations ± standard deviation (SD). Untreated cells served as control and considered to have a proliferation index (PI = absorbance of treated cells/absorbance of untreated cells) equal to 1.

Series [4] concerns PE/CA-PJ49 tumor cells. Briefly: Cell cycle phase distribution by PI flow cytometry, tumor cells. Particulars: 24 h, RSV 40 μM. The procedure:
For analysis of cell-cycle distribution, the cells were collected after treatment, fixed with 70% ethanol for at least one hour at 4 °C. The cells were stained with propidium iodide (PI) an agent which intercalates into the major groove of double-stranded DNA and produces a highly fluorescent adduct that can be excited at 488 nm with a broad emission around 600 nm. Since PI can also bind to double-stranded RNA, it is necessary to treat the cells with RNase for optimal DNA resolution. Cells (1×10^6 cells/mL) were washed in PBS and centrifuge at 300× g, 5 min at 4 °C. The pellet of the cells were incubated for 10 min at 37 °C with 0.5 mg/sample RNase A and then was added 10 μg/sample of PI staining solution to cell pellet, mix well and incubated 10 min at 37 °C. The samples stored at 4 °C until analyzed by flow cytometry. A minimum of 20,000 events for each sample were collected using a FACS CantoII flow cytometer and ModFIT software (BectonDickinson) and used to determine the cell cycle phase distribution after debris exclusion.
The progression through the cell cycle phases induced by treatment were evaluated by flow cytometry using a FACSCanto II flow cytometer. Data analysis were performed using the ModFit 3.2 program which offers the possibility of evaluating the cell cycle phases distribution (G0/G1, S, G2 + M).

Series [5] deals with PE/CA-PJ49 tumor cells. Briefly: Annexin V-FITC/PI apoptosis flow cytometry, tumor cells. Particulars: 24 h. How it is done: as §1, §2

Take `Oc1ccc(C=Cc2cc(O)cc(O)c2)cc1` [RSV, 3,5,4′-trihydroxystilbene]: the viability at 24 h, 40 μM in series [1] (40 μM RSV) stood at 93.7%. In the series with HUVEC normal cells (40 μM RSV), the “Early Apoptosis = Q4 (%)” value came to 4.8%, the “Necrosis = Q1 (%)” value was 1.2%, the “Apoptoza Tarzie = Q2 (%)” value stood at 0.3% and the “Apoptoza Totală = Q2+Q4 (%)” value was determined as 5.1%. Also, in series [2] (40 μM RSV), the “n-fold P21 gene expression PE/CA-PJ49” value was 3.1. The “proliferation (index proliferation, IP)” value in the series on PE/CA-PJ49 tumor cells [3] (40 μM RSV) is recorded as “affected the proliferation of tumor cells PE/CA-PJ49 much more than the one of normal cells HUVEC”. In the series on PE/CA-PJ49 tumor cells [4], the G0/G1% worked out at 39.05% and the G2/M% is given as 19.41%. Besides, in the series with PE/CA-PJ49 tumor cells [5] (40 μM RSV), the “Early Apoptosis = Q4 (%)” value is 17.7%, the “Late Apoptosis = Q2 (%)” value is 9.5%, the “Necrosis = Q1 (%)” value amounted to 5.4% and the “Total Apoptosis = Q2 + Q4 (%)” value is 27.2%. Besides, the viability at 40 µM in the series with PE/CA-PJ49 tumor cells [5] (Homo sapiens, 40 μM RSV, read-out: Q3 (viable cells, FITC−PI−)) was determined as 67.4%.

Consider `COc1cc(/C=C/C(=O)CC(=O)/C=C/c2ccc(O)c(OC)c2)ccc1O` [CRM, Curcumin], for which the viability at 24 h, 15 μM in series [1] (15 μM CRM) turned out to be 90.2%. Moreover, in the series on HUVEC normal cells (15 μM CRM), the “Early Apoptosis = Q4 (%)” value is 6.7%, the “Necrosis = Q1 (%)” value is 2.6%, the “Apoptoza Tarzie = Q2 (%)” value is listed as 0.5% and the “Apoptoza Totală = Q2+Q4 (%)” value stood at 7.2%. In addition, the “n-fold P21 gene expression PE/CA-PJ49” value in series [2] (15 μM CRM) was 1.2. Moreover, the “proliferative process (IP)” value in the series on PE/CA-PJ49 tumor cells [3] (15 μM CRM) is on record as “much more intense decrease of the proliferative process”. In addition, in the series with PE/CA-PJ49 tumor cells [5] (15 μM CRM), the “Early Apoptosis = Q4 (%)” value is 19.1%, the “Late Apoptosis = Q2 (%)” value came to 9.1%, the “Necrosis = Q1 (%)” value worked out at 6.7% and the “Total Apoptosis = Q2 + Q4 (%)” value was found to be 28.2%. In the series on PE/CA-PJ49 tumor cells [5] (Homo sapiens, 15 μM CRM, read-out: Q3 (viable cells, FITC−PI−)), the viability at 15 µM was found to be 65.1%.
